The results in this text go back to patent US7456165B2, “HCV NS5B inhibitors” (Bristol-Myers Squibb Company, priority 2006, dated 2008).

Where two headings read alike, the source gives them in different places.

One assay relates to HCV replicon cells. Put plainly: HCV replicon FRET assay. Format: cell-based. From the text: FRET Assay Preparation. To perform the HCV FRET screening assay, 96-well cell culture plates were used. The FRET peptide (Anaspec, Inc.) (Taliani et al., Anal Biochem. 1996, 240, 60-67) contains a fluorescence donor, EDANS, near one end of the peptide and an acceptor, DABCYL, near the other end. The fluorescence of the peptide is quenched by […] resonance energy transfer (RET) between the donor and the acceptor, but as the NS3 protease cleaves the peptide the products are released from RET quenching and the fluorescence of the donor becomes apparent. The assay reagent was made as follows: 5× cell Luciferase cell culture lysis reagent from Promega (#E153A) diluted to 1× with dH2O, NaCl added to 150 mM final, the FRET peptide diluted to 20 μM final from a 2 mM stock.
To prepare plates, HCV replicon cells, with or without a Renilla luciferase reporter gene, were trypsinized and placed into each well of a 96-well plate with titrated test compounds added in columns 3 through 12; columns 1 and 2 contained a control compound (HCV protease inhibitor), and the bottom row contained cells without compound. The plates were then placed in a CO2 incubator at 37° C.
Assays. Subsequent to addition of the test compounds described above (FRET Assay Preparation), at various times the plate was removed and Alamar blue solution (Trek Diagnostics, #00-100) was added per well as a measure of cellular toxicity. After reading in a Cytoflour 4000 instrument (PE Biosystems), plates were rinsed with PBS and then used for FRET assay by the addition of 30 ul of the FRET peptide assay reagent described above (FRET Assay Preparation) per well. The plate was then placed into the Cytoflour 4000 instrument which had been set to 340 excite/490 emission, automatic mode for 20 cycles and the plate read in a kinetic mode. Typically, the signal to noise using an endpoint analysis after the reads was at least three-fold. Alternatively, after Alamar blue reading, plates were rinsed with PBS, 50 ul of DMEM (high glucose) without phenol red was added and plates were then used for luciferase assay using the Promega Dual-Glo Luciferase Assay System.
Compound analysis was determined by quantification of the relative HCV replicon inhibition and the relative cytotoxicity values. To calculate cytoxicity values, the average Alamar Blue fluorescence signals from the control wells were set as 100% non-toxic. The individual signals in each of the compound test wells were then divided by the average control signal and multiplied by 100% to determine […]. To calculate the HCV replicon inhibition values, an average background value was obtained from the two wells containing the highest amount of HCV protease inhibitor at the end of the assay period. These numbers were similar to those obtained from naïve Huh-7 cells.
The background numbers were then subtracted from the average signal obtained from the control wells and this number was used as 100% activity. The individual signals in each of the compound test wells were then divided by the averaged control values after background subtraction and multiplied by 100% to determine percent activity. EC50 values for a protease inhibitor titration were calculated as the concentration which caused a 50% reduction in FRET or luciferase activity. The two numbers generated for the compound plate, percent cytoxicity and percent activity were used to determine compounds of interest for further analysis.

The target in the next assay is T1, HCV NS5B (Hepatitis C virus genotype 1b, UniProt Q9WMX2).
T1 construct: The protein was expressed with an 18 amino acid C-terminal truncation to enhance the solubility; made in house; host or cells: E. coli BL21(DE3)
T1 sequence (Q9WMX2 2420-2992): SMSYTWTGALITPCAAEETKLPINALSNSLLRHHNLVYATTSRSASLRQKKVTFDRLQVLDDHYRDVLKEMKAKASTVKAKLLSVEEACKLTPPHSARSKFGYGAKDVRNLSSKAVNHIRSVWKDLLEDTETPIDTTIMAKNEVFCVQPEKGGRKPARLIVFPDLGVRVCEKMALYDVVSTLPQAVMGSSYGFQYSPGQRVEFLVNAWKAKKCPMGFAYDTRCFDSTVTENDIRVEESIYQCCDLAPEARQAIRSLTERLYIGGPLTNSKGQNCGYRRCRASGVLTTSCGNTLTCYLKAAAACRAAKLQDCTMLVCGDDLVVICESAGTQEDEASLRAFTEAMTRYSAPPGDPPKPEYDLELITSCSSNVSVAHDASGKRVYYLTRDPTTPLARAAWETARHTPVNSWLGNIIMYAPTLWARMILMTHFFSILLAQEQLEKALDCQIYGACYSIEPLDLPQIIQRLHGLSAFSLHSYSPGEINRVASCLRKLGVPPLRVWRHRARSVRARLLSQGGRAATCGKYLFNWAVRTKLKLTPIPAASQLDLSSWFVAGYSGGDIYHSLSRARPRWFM
Put plainly: HCV NS5B RdRp enzyme assay (preincubation protocol). Type of assay: biochemical. The following applies: HCV NS5B RdRp genotype 1b. The protocol: HCV NS5B RdRp cloning, expression, and purification. The cDNA encoding the NS5B protein of HCV, genotype 1b, was cloned into the pET21a expression vector. The protein was expressed with an 18 amino acid C-terminal truncation to enhance the solubility. The E. coli competent cell line BL21(DE3) was used for expression of the protein. Cultures were grown at 37° C. for ˜4 hours until the cultures reached an optical density of 2.0 at 600 nm. The cultures were cooled to 20° C. and induced with 1 mM IPTG. Fresh ampicillin was added to a final concentration of 50 μg/ml and the cells were grown overnight at 20° C.
Cell pellets (3 L) were lysed for purification to yield 15-24 mgs of purified NS5B. The lysis buffer consisted of 20 mM Tris-HCl, pH 7.4, 500 mM NaCl, 0.5% triton X-100, 1 mM DTT, 1 mM EDTA, 20% glycerol, 0.5 mg/ml lysozyme, 10 mM MgCl2, 15 ug/ml deoxyribonuclease I, and Complete TM protease inhibitor tablets (Roche). After addition of the lysis buffer, frozen cell pellets were resuspended using a tissue homogenizer. To reduce the viscosity of the sample, aliquots of the lysate were sonicated on ice using a microtip attached to a Branson sonicator. The sonicated lysate was centrifuged at 100,000×g for 1 hr at 4° C. and filtered through a 0.2 μm filter unit (Corning).
The protein was purified using three sequential chromatography steps: Heparin sepharose CL-6B, polyU sepharose 4B, and Hitrap SP sepharose (Pharmacia). The chromatography buffers were identical to the lysis buffer but contained no lysozyme, deoxyribonuclease I, MgCl2 or protease inhibitor and the NaCl concentration of the buffer was adjusted according to the requirements for charging the protein onto the column. Each column was eluted with a NaCl gradient which varied in length from 5-50 column volumes depending on the column type. After the final chromatography step, the resulting purity of the enzyme is >90% based on SDS-PAGE analysis. The enzyme was aliquoted and stored at −80° C.
Standard HCV NS5B RdRp enzyme assay. HCV RdRp genotype 1b assays were run in a final volume of 60 μl in 96 well plates (Costar 3912 H. The assay buffer is composed of 20 mM Hepes, pH 7.5, 2.5 mM KCl, 2.5 mM MgCl2, 1 mM DTT, 1.6 U RNAse inhibitor (Promega N2515), 0.1 mg/ml BSA (Promega R3961), and 2% glycerol. All compounds were serially diluted (3-fold) in DMSO and diluted further in water such that the final concentration of DMSO in the assay was 2%. HCV RdRp genotype 1b enzyme was used at a final concentration of 28 nM. A polyA template was used at 6 nM, and a biotinylated oligo-dT12 primer was used at 180 nM final concentration. Template was obtained commercially (Amersham 27-4110). Biotinylated primer was prepared by Sigma Genosys. 3H-UTP was used at 0.6 μCi (0.29 μM total UTP). Reactions were initiated by the addition of enzyme, incubated at 30° C. for 60 min, and stopped by adding 25 μl of 50 mM EDTA containing SPA beads (4 μg/μl, Amersham RPNQ 0007 H. Plates were read on a Packard Top Count NXT after >1 hr incubation at room temperature.
Modified HCV NS5B RdRp enzyme assay. A modified enzyme assay was performed essentially as described for the standard enzyme assay except for the following: The biotinylated oligo dT12 primer was precaptured on streptavidin-coated SPA beads by mixing primer and beads in assay buffer and incubating at room temperature for one hour. Unbound primer was removed after centrifugation. The primer-bound beads were resuspended in 20 mM Hepes buffer, pH 7.5 and used in the assay at final concentrations of 20 nM primer and 0.67 μg/μl beads. Order of addition in the assay: enzyme (14 nM) was added to diluted compound followed by the addition of a mixture of template (0.2 nM), 3H-UTP (0.6 μCi, 0.29 μM), and primer-bound beads, to initiate the reaction; concentrations given are final. Reactions were allowed to proceed for 4 hours at 30° C.
IC50 values for compounds were determined using seven different [I]. […]

In turn, `COc1ccc2c(c1)CC(c1ncc(CCC(=O)N3CCOCC3)o1)Cn1c-2c(C2CCCCC2)c2ccc(C(=O)O)cc21` (racemic) [Example 50, 13-Cyclohexyl-3-methoxy-6-(5-(3-(4-morpholinyl)-3-oxopropyl)-1,3-oxazol-2-yl)-6,7-dihydro-5H-indolo[2,1-a][2]benzazepine-10-carboxylic acid] had an EC50 with HCV replicon cells (Hepatitis C virus) of 1 to 500 nM. Besides, the IC50 on HCV NS5B was in the range of 1 to 500 nM.
As for `COc1ccc2c(c1)CC(c1ncc(CCC(=O)N3CCOCC3)o1)Cn1c-2c(C2CCCCC2)c2ccc(C(=O)O)cc21` (single isomer, unassigned) [Example 51, 13-Cyclohexyl-3-methoxy-6-(5-(3-(4-morpholinyl)-3-oxopropyl)-1,3-oxazol-2-yl)-6,7-dihydro-5H-indolo[2,1-a][2]benzazepine-10-carboxylic acid], the 50% effective concentration (EC50) in the assay on HCV replicon cells is greater than 500 nM. This compound also showed an IC50 against HCV NS5B of 1 to 500 nM.
For `COc1ccc2c(c1)CC(c1ncc(CCC(=O)N3CCOCC3)o1)Cn1c-2c(C2CCCCC2)c2ccc(C(=O)O)cc21` (single isomer, unassigned) [Example 52, 13-Cyclohexyl-3-methoxy-6-(5-(3-(4-morpholinyl)-3-oxopropyl)-1,3-oxazol-2-yl)-6,7-dihydro-5H-indolo[2,1-a][2]benzazepine-10-carboxylic acid], the EC50 in the assay on HCV replicon cells lay in the range of 1 to 500 nM. This compound yielded a 50% inhibitory concentration (IC50) against HCV NS5B of 1 to 500 nM.
`COc1ccc2c(c1)CC(c1ncc(CCC(=O)N3CCOCC3)o1)Cn1c-2c(C2CCCCC2)c2ccc(C(=O)NS(=O)(=O)N(C)C)cc21` (single isomer, unassigned) [Example 53, 13-Cyclohexyl-N-((dimethylamino)sulfonyl)-3-methoxy-6-(5-(3-(4-morpholinyl)-3-oxopropyl)-1,3-oxazol-2-yl)-6,7-dihydro-5H-indolo[2,1-a][2]benzazepine-10-carboxamide] came in with a concentration giving a half-maximal response (EC50) with HCV replicon cells (Hepatitis C virus) of 1 to 500 nM. This compound showed a half-maximal inhibitory concentration (IC50) at HCV NS5B of 1 to 500 nM.
Take `COc1ccc2c(c1)C[C@H](c1ncc(CCC(=O)N3CCOCC3)o1)Cn1c-2c(C2CCCCC2)c2ccc(C(=O)NS(=O)(=O)N(C)C)cc21` (single isomer, unassigned) [Example 54, 13-cyclohexyl-N-((dimethylamino)sulfonyl)-3-methoxy-6-(5-(3-(4-morpholinyl)-3-oxopropyl)-1,3-oxazol-2-yl)-6,7-dihydro-5H-indolo[2,1-a][2]benzazepine-10-carboxamide]: in the assay with HCV replicon cells (Hepatitis C virus), the EC50 is 1 to 500 nM. This compound gave an IC50 against HCV NS5B of 1 to 500 nM.
Consider `COC(=O)c1ccc2c(C3CCCCC3)c3n(c2c1)CC(c1nnn[nH]1)=Cc1ccccc1-3` [Example 1, 13-cyclohexyl-6-(1H-tetrazol-5-yl)-7H-indolo[2,1-a][2]benzazepine-10-carboxylic acid, methyl ester], for which the EC50 in the assay on HCV replicon cells (Hepatitis C virus) is greater than 500 nM. Further, at HCV NS5B, the IC50 is greater than 500 nM.
In the assay with HCV replicon cells (Hepatitis C virus), `CCn1nnc(C2=Cn3c(c(C4CCCCC4)c4ccc(C(=O)O)cc43)-c3ccccc3C2)n1` [Example 2, 13-cyclohexyl-6-(2-ethyl-2H-tetrazol-5-yl)-5H-indolo[2,1-a][2]benzazepine-10-carboxylic acid] came in with a concentration for a half-maximal effect (EC50) greater than 500 nM. Besides, on HCV NS5B, the half-maximal inhibitory concentration (IC50) is 1 to 500 nM.
Consider `CCn1nnc(C2=Cc3ccccc3-c3c(C4CCCCC4)c4ccc(C(=O)O)cc4n3C2)n1` [Example 3, 13-cyclohexyl-6-(2-ethyl-2H-tetrazol-5-yl)-7H-indolo[2,1-a][2]benzazepine-10-carboxylic acid], for which the 50% effective concentration (EC50) with HCV replicon cells (Hepatitis C virus) is greater than 500 nM. Besides, the IC50 on HCV NS5B is 1 to 500 nM.
With `COC(=O)c1ccc2c(C3CCCCC3)c3n(c2c1)CC(c1ncc(CCC(=O)N2CCOCC2)o1)Cc1cc(OC)ccc1-3` (stereo not drawn) [Example 49, Methyl 13-cyclohexyl-3-methoxy-6-(5-(3-(4-morpholinyl)-3-oxopropyl)-1,3-oxazol-2-yl)-6,7-dihydro-5H-indolo[2,1-a][2]benzazepine-10-carboxylate], at HCV NS5B, the IC50 was greater than 500 nM.
Still for that read-out and setting: next, `COC(=O)c1ccc2c(C3CCCCC3)c3n(c2c1)CC(c1ncco1)=Cc1cc(OC)ccc1-3` [Example 55, Methyl 13-cyclohexyl-3-methoxy-6-(1,3-oxazol-2-yl)-7H-indolo[2,1-a][2]benzazepine-10-carboxylate]: greater than 500 nM.

Broadly, the EC50 is the concentration that produces a half-maximal response. A high value points to lower potency in that assay. Broadly, the IC50 is the concentration that inhibits the measured activity by half.
